Assay results published in US7925520B2, “Methods of predicting dose of drug and program for predicting dose of drug” (priority 2007, dated 2011).
“And” between values parts separate entries of the source, which are not always exact repeats. Equal values may be shown once. Read-outs that look alike come from different tables or passages of the source.

Key:
[1] = Prediction of Log(M*/C) from measured C and R by Equation 2; set-up: species or system rat; conditions: M* determined as a function of measured C and R values (Eq. 2)
[2] = Measurement 1: migration M of drug ion to skin with membrane type iontophoresis device; format: in vitro ADME, rat; conditions: for LogM: log of migration M, 6.25 mM, 0.94 mA, 60 minutes; for LogM / M (migration of drug ion to skin): rat back skin; for M (migration of drug ion to skin): 6.25 mM drug solution, constant current 0.94 mA for 60 minutes, average of 3
Text: (§1) In some embodiments, a working side assembly 10 of the device 1 may include a working side electrode (negative electrode) 11; an electrolyte solution holding portion 12 for holding a physiological salt solution; a cation exchange membrane 13 on the front surface side of the electrolyte solution holding portion; a drug solution holding portion 14 for holding a drug solution on the front surface side of the cation exchange membrane 13; and an anion exchange membrane 15 on the front surface side of the drug solution holding portion.
(§2) In some embodiments, a non-working side assembly 20 of the device 1 may include a non-working side electrode (positive electrode) 21; an electrolyte solution holding portion 22 for holding a physiological salt solution; an anion exchange membrane 23 on the front surface side of the electrolyte solution holding portion 22; an electrolyte solution holding portion 24 for holding a physiological salt solution on the front surface side of the anion exchange membrane 23; and a cation exchange membrane 25 on the front surface side of the electrolyte solution holding portion 24. It should be noted that an ion exchange membrane CLE 04-2 manufactured by Tokuyama Co., Ltd. was used as each of the ion exchange membrane 13 and the ion exchange membrane 25, and an ion exchange membrane ALE 04-2 manufactured by Tokuyama Co., Ltd. was used as each of the ion exchange membrane 15 and the ion exchange membrane 23.
Energization was performed in a state where a corium layer 32 was brought into contact with the physiological salt solution of the electrolyte solution holding portion 26. After energization, the skin 30 was frozen and processed.
The above measurement was performed 3 times for each sample, and the average value of the measurements was determined as the migration M.

[3] = Measurement 2: migration C of drug ion under skin-absent condition (through anion exchange membrane into physiological salt solution); format: physicochemical; conditions: for LogC: log of migration C, 6.25 mM, 0.94 mA, 60 minutes; for C (migration of drug ion under skin-absent condition): 6.25 mM drug solution, constant current 0.94 mA for 60 minutes, average of 3
Text: as §1, §2
The drug solution composition of the drug solution holding portion 14, energization conditions, and the like were identical to those of Measurement 1.
The above measurement was performed 3 times for each sample, and the average value of the measurements was determined as the migration C.

[4] = Measurement 3: migration R of drug ion to liposome; format: physicochemical; conditions: 20 mM EPC liposome and 3.125 mM drug solution 1:1 by volume; 37° C., 18 hours; average of 3
Protocol: 20 mM of an EPC liposome (yolk phosphatidylcholine (lecithin)/particle diameter 290 to 490 nm) and 3.125 mM of a drug solution were mixed at a volume ratio of 1:1, and the mixture was incubated at 37° C. for 18 hours. After that, the resultant was centrifuged, and the amount of a drug ion in each of the supernatant and the precipitate was measured by HPLC, whereby the amount of the drug ion (unit: nmol/cm^3) that had migrated to the EPC liposome was measured.
The above measurement was performed 3 times for each sample, and the average value of the measurements was determined as the migration R.

[5] = value from Scifinder database, cited from earlier work; for PSA: in Å2 (unit assumed)

Compound | Predicted Log(M*/C) [1] | Log(M/C) ([2]; from measured M and C) | LogM [2] | LogC [3] | LogR (migration R of drug ion to liposome) [4] | C (migration of drug ion under skin-absent condition) [3] | Log(M/C) [2] | LogD [5] | LogP [5] | PSA [5] | M (migration of drug ion to skin) [2] [nmol/mL]
O=C(O)Cc1ccccc1Nc1c(Cl)cccc1Cl [Diclofenac] | 0.1 | 0.3 | 3.16 | 2.86 |  |  |  |  |  |  | 
O=C(O)c1ccccc1O [Salicylic acid] | −1.04 | −0.96 | 2.87 | 3.83 | −0.49 | 6800 nmol/mL |  | −1.08 | 2.06 | 58 | 749
CC(C(=O)O)c1cccc(C(=O)c2ccccc2)c1 (centres unmarked) [Ketoprofen] | −0.89 |  |  | 3.39 | −0.29 | 2432 nmol/mL |  | 0.33 |  | 54 | 
CCc1cccc2c3c([nH]c12)C(CC)(CC(=O)O)OCC3 (centres unmarked) [Etodolac] | −0.54 | −0.93 | 2.48 | 3.41 |  |  |  |  |  |  | 

The next lines start with results.

Predicted Log(M*/C) [1] | Log(M/C) ([2]; from measured M and C) | LogM [2] | LogC [3] | LogR (migration R of drug ion to liposome) [4] | C (migration of drug ion under skin-absent condition) [3] | Log(M/C) [2] | Compound | LogD [5] | LogP [5] | PSA [5] | M (migration of drug ion to skin) [2] [nmol/mL]
 |  |  | 3.89 | −0.69 | 7822 nmol/mL |  | O=C(O)Cc1c[nH]c2ccccc12 [Indoleacetic acid, 3-Indoleacetic acid] | −1.37 | 1.43 |  | 
−0.49 | −0.87 | 2.47 | 3.34 | 0.23 | 2189 nmol/mL |  | COc1ccc2c(c1)c(CC(=O)O)c(C)n2C(=O)c1ccc(Cl)cc1 [Indomethacin] | −0.13 | 3.11 | 64 | 296
 |  |  | 3.53 | 0.27 | 3409 nmol/mL |  | O=C(O)Cc1ccc(-c2ccccc2)cc1 [Felbinac] | 0.83 | 3.26 |  | 
−0.87 |  |  | 3.58 | −0.26 | 3744 nmol/mL and 3774 nmol/mL | −0.74 | O=C(O)CCCc1c[nH]c2ccccc12 [Indolebutylic acid, Indolebutyric acid] |  |  | 53 and 53.1 | 
−1.03 |  |  | 3.68 | −0.47 | 4806 nmol/mL | −0.8 | 1-Naphtaleneacetic acid [Napthaleneacetic acid] |  |  | 37 and 37.3 | 
